Measurements from the NIST ThermoML archive (doi:10.1016/j.fluid.2006.01.030).

Legend:
[1] = Liquid
[2] = xn = mol fraction of the nth substance listed; settings: Liquid, x1 = 1

CCCCCCC [heptane]
viscosity [mPa·s], [1]
Settings | 293.15 K | 313.15 K | 333.15 K | 353.15 K
100 kPa, Capillary tube (Ostwald / Ubbelohde) method | 0.41 | 0.333 | 0.276 | 0.232
20000 kPa, Falling or rolling sphere viscometry | 0.509 | 0.408 | 0.336 | 0.289
40000 kPa, Falling or rolling sphere viscometry | 0.604 | 0.487 | 0.402 | 0.346
60000 kPa, Falling or rolling sphere viscometry | 0.706 | 0.57 | 0.472 | 0.401
80000 kPa, Falling or rolling sphere viscometry | 0.817 | 0.658 | 0.546 | 0.458
100000 kPa, Falling or rolling sphere viscometry | 0.937 | 0.751 | 0.623 | 0.521

CCO [ethanol]
viscosity [mPa·s], [1]
Settings | 293.15 K | 313.15 K | 333.15 K | 353.15 K
100 kPa, Capillary tube (Ostwald / Ubbelohde) method | 1.194 | 0.826 | 0.59 | –
20000 kPa, Falling or rolling sphere viscometry | 1.344 | 0.948 | 0.683 | 0.51
40000 kPa, Falling or rolling sphere viscometry | 1.494 | 1.059 | 0.769 | 0.574
60000 kPa, Falling or rolling sphere viscometry | 1.647 | 1.171 | 0.851 | 0.636
80000 kPa, Falling or rolling sphere viscometry | 1.797 | 1.282 | 0.934 | 0.699
100000 kPa, Falling or rolling sphere viscometry | 1.955 | 1.392 | 1.015 | 0.763

CCO [ethanol] + CCCCCCC
viscosity [mPa·s], [2]
Settings | 293.15 K | 313.15 K | 333.15 K | 353.15 K
100 kPa, Capillary tube (Ostwald / Ubbelohde) method | 1.194 | 0.826 | 0.59 | –
20000 kPa, Falling or rolling sphere viscometry | 1.344 | 0.948 | 0.683 | 0.51
40000 kPa, Falling or rolling sphere viscometry | 1.494 | 1.059 | 0.769 | 0.574
60000 kPa, Falling or rolling sphere viscometry | 1.647 | 1.171 | 0.851 | 0.636
80000 kPa, Falling or rolling sphere viscometry | 1.797 | 1.282 | 0.934 | 0.699
100000 kPa, Falling or rolling sphere viscometry | 1.955 | 1.392 | 1.015 | 0.763
